One series relates to F11 cells. In words: FLIPR calcium assay, activation of F11 cells. Format: cell-based. As to conditions: F11 cells, FLIPR; for Neuronal Cell Activation (EC50) / EC50: Calcium 4 dye, max-min fluorescence in 300 s after peptide addition, PSS with 0.1% BSA, mean ± SEM, triplicate; for EC50: read-out: Neuronal Cell Activation (EC50). The protocol:
F11 cells were cultured as previously described. Cells were maintained on Ham’s F12 media supplemented with 10% fetal bovine serum (FBS), 100 µM hypoxanthine, 0.4 µM aminopterin, and 16 µM thymidine (Hybri-MaxTM, Sigma Aldrich, North Ryde, Australia). Then, 384-well imaging plates (Corning) were seeded 48 h prior to imaging resulting in 90–95% confluence at imaging. Cells were incubated for 30 min with the Calcium 4 assay component A according to the manufacturer’s instructions (Molecular Devices, Sunnyvale, CA, USA) in physiological salt solution (PSS; composition in mM: 140 NaCl, 11.5 D-glucose, 5.9 KCl, 1.4 MgCl2, 1.2 NaH2PO4, 5 NaHCO3, 1.8 CaCl2, 10 HEPES) at 37°C. Fluorescence was measured using a fluorescent imaging plate reader (FLIPR^TETRA) equipped with a CCD camera (Excitation: 470–490 nm, Emission: […]) (Molecular Devices, Sunnyvale, CA, USA). Signals were read every second for 10 s before, and 300 s after the addition of peptides in PSS supplemented with 0.1% bovine serum albumin. All data are the mean ± SEM of assays performed in triplicate. Maximum–minimum fluorescence in the 300 s period after peptide addition was recorded as the response. Concentration–response data were fitted with a four-parameter Hill equation (variable slope) using GraphPad Prism 8 to obtain effective concentration (EC50) values.

Another series relates to Haemonchus contortus. Kind of series: microbe, parasite or virus in culture. The series is classed as cell-based. As to conditions: for IC50: read-out: Anthelmintic Activity (IC50), inhibition of larval development; for Fold less active than levamisole (IC50 higher): larval development, drug-susceptible isolate. The protocol: Sheep were infected with H. contortus Kirby isolate (field isolate from the University of New England Kirby Research Farm in 1986; susceptible to all commercial anthelmintics) and housed at the Commonwealth Scientific and Industrial Research Organisation (CSIRO) FD McMaster Laboratory, Armidale, NSW. All animal procedures were approved by the FD McMaster Animal Ethics Committee, CSIRO (Approval Number AEC 17/12, approval date 15.6.2017). Eggs were prepared from overnight fecal collection as described. In brief, feces were filtered through mesh filters, settled, and supernatant removed by vacuum. Eggs were recovered by density centrifugation using 10 and 25% (w/v) sucrose solutions, centrifuged at 650× g for 7 min. Eggs were recovered from the interface of the two sucrose layers, rinsed with distilled water, sterilized with bleach, rinsed again, and diluted to 4500 eggs/mL. Tylosin tartrate (800 μg/mL) and amphotericin B (25.0 μg/mL) were added, and eggs were used immediately for larval development assays.
Assays were conducted using 96-well microtitre plates, with each well containing 50 μL of 2% agar, 20 μL of egg solution and 20 μL of peptide solution in water. The commercial anthelmintic levamisole (Sigma Aldrich) was used as a positive control (final 1% v/v). Negative controls contained equivalent volumes of water or DMSO (final 1% v/v). Plates were incubated at 26 °C for six days. After 24 h, each well was fed with 10 μL of a nutrient solution containing Escherichia coli XL1-Blue1 (grown overnight at 37 °C) and growth medium. The growth medium consisted of yeast extract (1% w/v), Earle’s salt solution (10% v/v), saline solution (0.9% NaCl, w/v), and sodium bicarbonate (1 mM) in Luria-Bertani medium (LB). Larvae were killed and stained with Lugol’s iodine solution after six days. Larvae that had developed to the infective L3 stage were counted, and the numbers in treated assay wells were expressed as a percentage of the number of infective L3 stage larvae in multiple control wells. Concentrations that caused 50% inhibition (IC50 values) were calculated from three experiments of duplicate assays.

A further series concerns Drosophila melanogaster. Kind of series: Drosophila melanogaster microinjection assay. Format: in vivo. The following applies: intrathoracic injection, 50 nL, adult female flies, lethality at 24 h; three dose-response curves, ± SEM. The protocol: The insecticidal activity of the chemically synthesized 1a and analogues thereof were determined by injection into adult female D. melanogaster aged 3–5 days (mass 0.7–0.9 mg) as described previously. Analogues were dissolved in water and intrathoracically injected using pulled glass capillaries at a volume of 50 nL per fruit fly, and the results were compared against an equivalent injection volume of water alone. All injections were performed in the morning or early afternoon. At 24 h post-injection flies were monitored for lethality. Dose–response curves were constructed using 7–10 doses per analogue (each dose tested in eight flies) and three separate dose–response curves were constructed for each analogue. The lethality in the groups receiving the analogues were adjusted using the respective control group lethality using the Henderson-Tilton formula [20]. The median lethal dose (LD50) of each analogue was calculated based on the three dose–response curves using GraphPad Prism 8.0 [21]. One-way ANOVA followed by Dunnett’s multiple comparison test were used to compare LD50 values.

Another series has as its system HEK293 cells. As to conditions: HEK293, 24 h, resazurin; cited from earlier work. The protocol: Table 2 Summary of bioassay data for synthetic Mp1a and analogues, including effective concentration (EC50) for activation of F11 cells, concentrations that caused 50% inhibition (IC50) for inhibition of larval development of H. contortus; median lethal dose (LD50) for lethal insecticidal effects on D. melanogaster; concentrations required to induce 50% cell death (CC50) for effects on viability o | column: Cytotoxicity (CC50 µM) ^b

For a further series, the system named is human red blood cells. The following applies: cited from earlier work. The method, then:
Table 2 Summary of bioassay data for synthetic Mp1a and analogues, including effective concentration (EC50) for activation of F11 cells, concentrations that caused 50% inhibition (IC50) for inhibition of larval development of H. contortus; median lethal dose (LD50) for lethal insecticidal effects on D. melanogaster; concentrations required to induce 50% cell death (CC50) for effects on viability o | column: Hemolysis (HC50 µM) ^b

[1] abbreviates: H. contortus Kirby isolate, egg to infective L3, 6 days, 26 °C, three experiments of duplicate assays, ± SEM, for 1a the component at higher concentrations (about 90% of population).

Where two headings read alike, the source gives them in different places. Marks after values point to notes of the source that are not given here. A value given as a limit tells only on which side of the number the result lay.

As for “H-IDWKKVDWKKVSKKTSKVMLKASKFL-NH2 [Analogue 3b]”, the “Neuronal Cell Activation (EC50)” value with F11 cells is “inactive”. Moreover, the IC50 in the series with Haemonchus contortus (setting [1]) is 64.9 ± 6.3 µM. Further, the “Insecticidal Activity (LD50)” value with Drosophila melanogaster is on record as more than 600 pmol/g. For the same compound, the “Cytotoxicity (CC50)” value in the series with HEK293 cells is reported as more than 20 µM. Also, the “Hemolysis (HC50)” value in the series on human red blood cells is more than 20 µM.
Consider `CC[C@H](C)[C@H](N)C(=O)N[C@@H](CC(=O)O)C(=O)N[C@@H](Cc1c[nH]c2ccccc12)C(=O)N[C@@H](CCCCN)C(=O)N[C@@H](CCCCN)C(=O)N[C@H](C(=O)N[C@@H](CC(=O)O)C(=O)N[C@@H](Cc1c[nH]c2ccccc12)C(=O)N[C@@H](CCCCN)C(=O)N[C@@H](CCCCN)C(=O)N[C@H](C(=O)N[C@@H](CO)C(=O)N[C@@H](CCCCN)C(=O)N[C@@H](CCCCN)C(=O)N[C@H](C(=O)N[C@H]1CSSC[C@@H](C(=O)N[C@@H](CCCCN)C(=O)N[C@@H](CCCCN)C(=O)N[C@H](C(=O)N[C@@H](CC(C)C)C(=O)N[C@@H](CCCCN)C(=O)N[C@@H](CCC(N)=O)C(N)=O)C(C)C)NC(=O)[C@H](C(C)C)NC(=O)[C@H]([C@@H](C)O)NC(=O)[C@H](CCCCN)NC(=O)[C@H](C(C)C)NC(=O)[C@H](CC(C)C)NC(=O)[C@H](C(C)C)NC(=O)[C@@H](NC(=O)[C@@H](NC(=O)CNC(=O)[C@H](CCCCN)NC(=O)[C@H](CO)NC(=O)[C@@H](NC(=O)[C@H](CC(C)C)NC(=O)CNC(=O)[C@@H](NC(=O)[C@@H](N)CC(C)C)[C@@H](C)CC)C(C)C)[C@@H](C)O)CSSC[C@@H](C(=O)N[C@@H](CCCCN)C(=O)N[C@@H](Cc2ccccc2)C(=O)N[C@@H](CC(C)C)C(N)=O)NC(=O)[C@H](C)NC(=O)[C@H](CCCCN)NC(=O)[C@H](C)NC(=O)[C@H](CCSC)NC(=O)[C@H](C(C)C)NC(=O)[C@H](CCCCN)NC1=O)[C@@H](C)O)C(C)C)C(C)C` [Analogue 1d], for which, in the series with F11 cells, the “Concentration at which cytolysis (rapid increase in fluorescence followed by decrease to or below baseline) was observed” value was not below 1 µM and the EC50 came to 3.38 ± 2.8 µM. Further, the IC50 in the series with Haemonchus contortus (setting [1]) stood at 9.5 ± 0.3 µM. For the same compound, the “Fold less active than levamisole (IC50 higher)” value in the series with Haemonchus contortus is “approximately 10 fold”. Moreover, the “Insecticidal Activity (LD50)” value in the series with Drosophila melanogaster is on record as 578 ± 9.7 ^a pmol/g. Further, the “Cytotoxicity (CC50)” value with HEK293 cells is 0.7 µM. The “Hemolysis (HC50)” value with human red blood cells is on record as more than 12 µM.
On to `CC[C@H](C)[C@H](N)C(=O)N[C@@H](CC(=O)O)C(=O)N[C@@H](Cc1c[nH]c2ccccc12)C(=O)N[C@@H](CCCCN)C(=O)N[C@@H](CCCCN)C(=O)N[C@H](C(=O)N[C@@H](CC(=O)O)C(=O)N[C@@H](Cc1c[nH]c2ccccc12)C(=O)N[C@@H](CCCCN)C(=O)N[C@@H](CCCCN)C(=O)N[C@H](C(=O)N[C@@H](CO)C(=O)N[C@@H](CCCCN)C(=O)N[C@@H](CCCCN)C(=O)N[C@H](C(=O)N[C@H]1CSSC[C@@H](C(=O)N[C@@H](CCCCN)C(=O)N[C@@H](CCCCN)C(=O)N[C@H](C(=O)N[C@@H](CC(C)C)C(=O)N[C@@H](CCCCN)C(=O)N[C@@H](CCC(N)=O)C(N)=O)C(C)C)NC(=O)[C@H](C(C)C)NC(=O)[C@H]([C@@H](C)O)NC(=O)[C@H](CCCCN)NC(=O)[C@H](C)NC(=O)[C@H](CC(C)C)NC(=O)[C@H](C(C)C)NC(=O)[C@@H](NC(=O)[C@@H](NC(=O)CNC(=O)[C@H](CCCCN)NC(=O)[C@H](CO)NC(=O)[C@@H](NC(=O)[C@H](CC(C)C)NC(=O)CNC(=O)[C@@H](NC(=O)[C@@H](N)CC(C)C)[C@@H](C)CC)C(C)C)[C@@H](C)O)CSSC[C@@H](C(=O)N[C@@H](CCCCN)C(=O)N[C@@H](Cc2ccccc2)C(=O)N[C@@H](CC(C)C)C(N)=O)NC(=O)[C@H](C)NC(=O)[C@H](CCCCN)NC(=O)[C@H](CC(C)C)NC(=O)[C@H](CCSC)NC(=O)[C@H](C(C)C)NC(=O)[C@H](CCCCN)NC1=O)[C@@H](C)O)C(C)C)C(C)C` [Analogue 1c], for which, in the series with F11 cells, the “Concentration at which cytolysis (rapid increase in fluorescence followed by decrease to or below baseline) was observed” value is given as not below 1 µM and the EC50 worked out at 1.39 ± 0.34 µM. The IC50 in the series on Haemonchus contortus (setting [1]) was 7.2 ± 0.1 µM. The “Fold less active than levamisole (IC50 higher)” value in the series on Haemonchus contortus is listed as “approximately 10 fold”. Besides, the “Insecticidal Activity (LD50)” value with Drosophila melanogaster is 552.7 ± 18.2 ^a pmol/g. Moreover, the “Cytotoxicity (CC50)” value with HEK293 cells is given as 0.7 µM. Moreover, in the series on human red blood cells, the “Hemolysis (HC50)” value is on record as more than 12 µM.
For “H-LIGLVSKGTSVLVKTVSKKVLKQ-NH2 [Analogue 4b]”, in the series with F11 cells, the “Neuronal Cell Activation (EC50)” value is “inactive”. The IC50 with Haemonchus contortus (setting [1]) is 61.3 ± 4.4 µM. Besides, the “Insecticidal Activity (LD50)” value in the series on Drosophila melanogaster is listed as more than 600 pmol/g. In addition, in the series on HEK293 cells, the “Cytotoxicity (CC50)” value is more than 15 µM. For the same compound, the “Hemolysis (HC50)” value in the series on human red blood cells is reported as more than 15 µM.
Turning to `c1ccc([C@H]2CN3CCSC3=N2)cc1` [levamisole, reference compound], the IC50 in the series on Haemonchus contortus (Haemonchus contortus, 144 h) is 0.68 µM.

What is called IC50 is the midpoint of a concentration-inhibition curve. The term EC50 denotes the concentration that produces a half-maximal response.

Source of the values: PMC7400207, “It Takes Two: Dimerization Is Essential for the Broad-Spectrum Predatory and Defensive Activities of the Venom Peptide Mp1a from the Jack Jumper Ant Myrmecia pilosula” (Biomedicines, 2020).
